# According to patent publication US6706737B2, “Alkoxy substituted benzimidazole compounds, pharmaceutical preparations containing the same, and methods of using the same” (priority 1999, dated 2004):
# Several values for one entry are separate records, joined by “and”; a condition that tells them apart may be missing. Identical values can stand only once.
# Assay: Solubility assessment as a function of HPβCD concentration
# Type: physicochemical
# Protocol: Solubility studies were performed by the addition of a known mass of 5(6)-methoxy-2[[(methoxy-3,5-dimethyl-2-pyridinyl)-methyl]sulfinyl]-1H-benzimidazole and/or HP CD to a given volume of solvent system. Solubilities were determined by observation, as the maximum concentration at which 5(6)-methoxy-2-[[(4-methoxy-3,5-dimethyl-2-pyridinyl)-methyl]sulfinyl]-1H-benzimidazole completely dissolved. Additionally, concentrations of 5(6)-methoxy-2-[[(4-methoxy-3,5-dimethyl-2-pyridinyl)methyl]sulfinyl]-1H-benzimidazole and HP CD at set molar ratios were solubilized in systems of high pH (adjusted as high as 12.2, with 1N NaOH), the pH was adjusted (using 2N HCl) in a stepwise downward manner until precipitation occurred.
# The solubility of 5(6)-methoxy-2-[[(4-methoxy-3,5-dimethyl-2-pyridinyl)-methyl]sulfinyl]-1H-benzimidazole was assessed as a function of HPβCD concentration in water. […] In general, the solubility of the active ingredient is influenced by solution pH.
# The procedure according to Example 86 was repeated except that water with a borate buffer (pH of 8) was employed.
# The procedure according to Example 86 was repeated except that water with a phosphate buffer (pH of 11) was employed.
structure (smiles),measurement,setting,value
"COc1ccc2[nH]c([S+]([O-])Cc3ncc(C)c(OC)c3C)nc2c1 (stereo not shown) [5(6)-methoxy-2-[[(4-methoxy-3,5-dimethyl-2-pyridinyl)-methyl]sulfinyl]-1H-benzimidazole]",aqueous solubility,water,approximately 0.3 mg/mL and ~0.9 mM
same,solubility as a function of HPβCD concentration,water,increase linearly
same,solubility as a function of HPβCD concentration,water with a borate buffer (pH of 8),increase linearly
same,solubility as a function of HPβCD concentration,water with a phosphate buffer (pH of 11),increase linearly
